From article PMC5218480 (PLoS ONE, 2017)

Test system: MV-4-11 cells
Assay: Gene expression microarray analysis (Affymetrix PrimeView) and GSEA
Type: cell-based, human
Parameters: RFU PODN (11730768_x_at) / Fold change /veh PODN (11730768_x_at) / RFU LINC00158 (11744669_a_at) / Fold change /veh LINC00158 (11744669_a_at) / RFU DUSP10 (11751237_a_at) / Fold change /veh DUSP10 (11751237_a_at) / RFU ID3 (11757404_x_at) / Fold change /veh ID3 (11757404_x_at) / RFU PLEKHG5 (11737974_s_at) / Fold change /veh PLEKHG5 (11737974_s_at) / RFU LRRC4B (11730491_at) / Fold change /veh LRRC4B (11730491_at) / RFU GIMAP4 (11747438_a_at) / Fold change /veh GIMAP4 (11747438_a_at) / RFU KRT8 (11758183_x_at) / Fold change /veh KRT8 (11758183_x_at) / RFU CNN1 (11734310_a_at) / Fold change /veh CNN1 (11734310_a_at) / RFU VPS37D (11726825_at) / Fold change /veh VPS37D (11726825_at) / RFU C10orf10 (11716522_x_at) / Fold change /veh C10orf10 (11716522_x_at) / RFU KIR2DL2 /// KIR2DL4 /// KIR2DL5A /// KIR2DL5B /// KIR2DS1 /// KIR2DS2 /// KIR2DS3 /// KIR2DS4 /// KIR3DL3 /// KIR3DL3 /// KIR3DS1 (11738374_at) / Fold change /veh KIR2DL2 /// KIR2DL4 /// KIR2DL5A /// KIR2DL5B /// KIR2DS1 /// KIR2DS2 /// KIR2DS3 /// KIR2DS4 /// KIR3DL3 /// KIR3DL3 /// KIR3DS1 (11738374_at) / RFU C1QL1 (11718748_at) / Fold change /veh C1QL1 (11718748_at) / RFU TMPRSS4 (11747572_a_at) / Fold change /veh TMPRSS4 (11747572_a_at) / RFU HAMP (11756126_x_at) / Fold change /veh HAMP (11756126_x_at) / RFU RNFT2 (11725882_a_at) / Fold change /veh RNFT2 (11725882_a_at) / RFU NR4A2 (11747474_a_at) / Fold change /veh NR4A2 (11747474_a_at) / RFU ABCC12 (11746883_a_at) / Fold change /veh ABCC12 (11746883_a_at) / RFU TMEM136 (11760407_x_at) / Fold change /veh TMEM136 (11760407_x_at) / RFU CLDN22 /// WWC2 (11732394_at) / Fold change /veh CLDN22 /// WWC2 (11732394_at) / RFU HLA-DPB1 (11760878_x_at) / Fold change /veh HLA-DPB1 (11760878_x_at) / RFU SPINT1 (11716480_a_at) / Fold change /veh SPINT1 (11716480_a_at) / RFU GAP43 (11754022_s_at) / Fold change /veh GAP43 (11754022_s_at) / RFU A4GNT (11735810_at) / Fold change /veh A4GNT (11735810_at) / RFU PRB3 (11715151_x_at) / Fold change /veh PRB3 (11715151_x_at) / RFU TUBB4B (11761932_at) / Fold change /veh TUBB4B (11761932_at) / RFU CAPN14 (11732068_a_at) / Fold change /veh CAPN14 (11732068_a_at) / RFU TMCC2 (11721928_a_at) / Fold change /veh TMCC2 (11721928_a_at) / RFU IRGQ (11745062_a_at) / Fold change /veh IRGQ (11745062_a_at) / RFU FAM174B (11720279_a_at) / Fold change /veh FAM174B (11720279_a_at) / RFU TMPRSS4 (11748680_a_at) / Fold change /veh TMPRSS4 (11748680_a_at) / RFU FAM212B (11763350_a_at) / Fold change /veh FAM212B (11763350_a_at) / RFU PLEKHG5 (11743358_a_at) / Fold change /veh PLEKHG5 (11743358_a_at) / RFU ZSCAN30 (11745921_a_at) / Fold change /veh ZSCAN30 (11745921_a_at) / RFU CMKLR1 (11741424_a_at) / Fold change /veh CMKLR1 (11741424_a_at) / RFU LOC101060620 /// MAPK8IP1 (11723275_at) / Fold change /veh LOC101060620 /// MAPK8IP1 (11723275_at) / RFU SPTSSB (11747773_x_at) / Fold change /veh SPTSSB (11747773_x_at) / RFU PRSS12 (11739890_at) / Fold change /veh PRSS12 (11739890_at) / RFU BIN1 (11741810_x_at) / Fold change /veh BIN1 (11741810_x_at) / RFU WNT11 (11732464_a_at) / Fold change /veh WNT11 (11732464_a_at) / RFU C10orf10 (11716521_a_at) / Fold change /veh C10orf10 (11716521_a_at) / RFU C5orf56 (11738089_at) / Fold change /veh C5orf56 (11738089_at) / RFU CYB561 (11721691_x_at) / Fold change /veh CYB561 (11721691_x_at) / RFU ANKRD19P (11752326_a_at) / Fold change /veh ANKRD19P (11752326_a_at) / RFU OR2T12 /// OR2T33 /// OR2T8 (11738714_s_at) / Fold change /veh OR2T12 /// OR2T33 /// OR2T8 (11738714_s_at) / RFU VCAN (11748164_a_at) / Fold change /veh VCAN (11748164_a_at) / RFU JSRP1 (11732532_at) / Fold change /veh JSRP1 (11732532_at) / RFU KRTAP10-11 (11738290_x_at) / Fold change /veh KRTAP10-11 (11738290_x_at) / RFU MYO3A (11730013_a_at) / Fold change /veh MYO3A (11730013_a_at) / RFU EBF3 (11725865_a_at) / Fold change /veh EBF3 (11725865_a_at) / RFU CAMK2N1 (11719241_x_at) / Fold change /veh CAMK2N1 (11719241_x_at) / RFU C5orf56 (11738088_a_at) / Fold change /veh C5orf56 (11738088_a_at) / RFU OLFML3 (11715873_a_at) / Fold change /veh OLFML3 (11715873_a_at) / RFU LOC100653217 /// NTM (11731650_a_at) / Fold change /veh LOC100653217 /// NTM (11731650_a_at) / RFU MAPK11 (11762145_a_at) / Fold change /veh MAPK11 (11762145_a_at) / RFU FIZ1 (11724087_x_at) / Fold change /veh FIZ1 (11724087_x_at) / RFU OASL (11726364_x_at) / Fold change /veh OASL (11726364_x_at) / RFU SOX15 (11748057_x_at) / Fold change /veh SOX15 (11748057_x_at) / RFU CD79A (11719716_a_at) / Fold change /veh CD79A (11719716_a_at) / RFU HIST1H1D (11736915_at) / Fold change /veh HIST1H1D (11736915_at) / RFU CASKIN2 (11723855_a_at) / Fold change /veh CASKIN2 (11723855_a_at) / RFU LOC730098 (11760151_x_at) / Fold change /veh LOC730098 (11760151_x_at) / RFU OR4N2 (11742367_at) / Fold change /veh OR4N2 (11742367_at) / RFU PRRT2 (11749266_a_at) / Fold change /veh PRRT2 (11749266_a_at) / RFU SNX32 (11753110_a_at) / Fold change /veh SNX32 (11753110_a_at) / RFU CDHR5 (11726645_a_at) / Fold change /veh CDHR5 (11726645_a_at) / RFU RCAN1 (11760418_a_at) / Fold change /veh RCAN1 (11760418_a_at) / RFU FAM167A (11723789_a_at) / Fold change /veh FAM167A (11723789_a_at) / RFU FAM26E (11764081_at) / Fold change /veh FAM26E (11764081_at) / RFU ISYNA1 (11749810_s_at) / Fold change /veh ISYNA1 (11749810_s_at) / RFU ACY1 (11761880_at) / Fold change /veh ACY1 (11761880_at) / RFU 11764098_at / Fold change /veh 11764098_at / RFU SAMD14 (11745864_x_at) / Fold change /veh SAMD14 (11745864_x_at) / RFU NPB (11741838_a_at) / Fold change /veh NPB (11741838_a_at) / RFU TMPRSS6 (11731388_a_at) / Fold change /veh TMPRSS6 (11731388_a_at) / RFU KRTAP10-2 (11738614_at) / Fold change /veh KRTAP10-2 (11738614_at) / RFU ARHGAP8 /// PRR5-ARHGAP8 (11727945_x_at) / Fold change /veh ARHGAP8 /// PRR5-ARHGAP8 (11727945_x_at) / RFU KRTAP5-7 /// NADSYN1 (11734609_at) / Fold change /veh KRTAP5-7 /// NADSYN1 (11734609_at) / RFU RASL12 (11751679_a_at) / Fold change /veh RASL12 (11751679_a_at) / RFU CDKN2B (11736163_a_at) / Fold change /veh CDKN2B (11736163_a_at) / RFU PRF1 (11729649_at) / Fold change /veh PRF1 (11729649_at) / RFU, ZNF638 /// ZNF638-IT1 / Fold change vs veh, ZNF638 /// ZNF638-IT1 / RFU, PANK3 / Fold change vs veh, PANK3 / RFU, SH3YL1 / Fold change vs veh, SH3YL1 / RFU, ZEB2 / Fold change vs veh, ZEB2 / RFU, NRIP1 / Fold change vs veh, NRIP1 / RFU, PTTG1IP / Fold change vs veh, PTTG1IP / RFU, CAPN2 / Fold change vs veh, CAPN2 / RFU, MED14 / Fold change vs veh, MED14 / RFU, SNORA58 / Fold change vs veh, SNORA58 / RFU, C1orf63 / Fold change vs veh, C1orf63 / RFU, LRRFIP1 / Fold change vs veh, LRRFIP1 / RFU, NDUFAF7 / Fold change vs veh, NDUFAF7 / RFU, SLC12A2 / Fold change vs veh, SLC12A2 / RFU, IBTK / Fold change vs veh, IBTK / RFU, ESF1 / Fold change vs veh, ESF1 / Fold change vs veh, TMEM50B / RFU, TAOK1 / Fold change vs veh, TAOK1 / RFU, ACBD3 / Fold change vs veh, ACBD3 / RFU, TMA16 / Fold change vs veh, TMA16 / RFU, RWDD3 / Fold change vs veh, RWDD3 / RFU, BCAT1 / Fold change vs veh, BCAT1 / RFU, EDEM3 / Fold change vs veh, EDEM3 / RFU, TMEM33 / Fold change vs veh, TMEM33 / RFU, WDR75 / Fold change vs veh, WDR75 / RFU, AHCTF1 / Fold change vs veh, AHCTF1 / RFU, TFRC / Fold change vs veh, TFRC / RFU, ZDHHC17 / Fold change vs veh, ZDHHC17 / RFU, NOM1 / Fold change vs veh, NOM1 / RFU, ARL8B / Fold change vs veh, ARL8B / RFU, ZBTB11 / Fold change vs veh, ZBTB11 / RFU, TAMM41 / Fold change vs veh, TAMM41 / RFU, KIAA1704 /// LOC100996395 / Fold change vs veh, KIAA1704 /// LOC100996395 / RFU, ING1 / Fold change vs veh, ING1 / RFU, TRMT61B / Fold change vs veh, TRMT61B / RFU, FUBP3 / Fold change vs veh, FUBP3 / RFU, TP53 / Fold change vs veh, TP53 / RFU, TNKS2 / Fold change vs veh, TNKS2 / RFU, ZFP14 / Fold change vs veh, ZFP14 / RFU, ACTR2 / Fold change vs veh, ACTR2 / RFU, PPP3R1 / Fold change vs veh, PPP3R1 / RFU, PIK3R1 / Fold change vs veh, PIK3R1 / RFU, HNRNPA1 / Fold change vs veh, HNRNPA1 / RFU, RNF170 / Fold change vs veh, RNF170 / RFU, ZNF28 / Fold change vs veh, ZNF28 / RFU, RNGTT / Fold change vs veh, RNGTT / RFU, OGT / Fold change vs veh, OGT / RFU, BRD1 / Fold change vs veh, BRD1 / RFU, MARS / Fold change vs veh, MARS / RFU, ZNF655 / Fold change vs veh, ZNF655 / RFU, FAHD1 / Fold change vs veh, FAHD1 / RFU, BDP1 / Fold change vs veh, BDP1 / RFU, LRRCC1 / Fold change vs veh, LRRCC1 / RFU, ARID1A / Fold change vs veh, ARID1A / RFU, ZNF146 / Fold change vs veh, ZNF146 / RFU, ZNF330 / Fold change vs veh, ZNF330 / RFU, GPN3 / Fold change vs veh, GPN3 / RFU, C9orf123 / Fold change vs veh, C9orf123 / RFU, N4BP2L2 / Fold change vs veh, N4BP2L2 / RFU, ARFIP1 / Fold change vs veh, ARFIP1 / RFU, FAM179B / Fold change vs veh, FAM179B / RFU, BCL10 / Fold change vs veh, BCL10 / RFU, UHRF1BP1L / Fold change vs veh, UHRF1BP1L / RFU, BET1 / Fold change vs veh, BET1 / RFU, CNOT2 / Fold change vs veh, CNOT2 / RFU, ZNF268 / Fold change vs veh, ZNF268 / Fold change vs veh, ZNF507 / RFU, DGCR2 / Fold change vs veh, DGCR2 / RFU, WDSUB1 / Fold change vs veh, WDSUB1 / Fold change vs veh, HSP90B1 /// MIR3652 / RFU, ADSS / Fold change vs veh, ADSS / RFU, GK / Fold change vs veh, GK / RFU, ZNF148 / Fold change vs veh, ZNF148 / RFU, TAF9 / Fold change vs veh, TAF9 / RFU, SLC1A5 / Fold change vs veh, SLC1A5 / RFU, SLMO2 / Fold change vs veh, SLMO2 / RFU, ABCC4 / Fold change vs veh, ABCC4 / RFU, LOC101060439 /// RAP1B / Fold change vs veh, LOC101060439 /// RAP1B / RFU, RFX7 / Fold change vs veh, RFX7 / RFU, GTPBP10 / Fold change vs veh, GTPBP10 / RFU, CNEP1R1 / Fold change vs veh, CNEP1R1 / RFU, BIVM-ERCC5 /// ERCC5 / Fold change vs veh, BIVM-ERCC5 /// ERCC5 / RFU, ILF3 / Fold change vs veh, ILF3 / RFU 11762660_at / Fold change /veh 11762660_at / RFU VCAN (11757783_s_at) / Fold change /veh VCAN (11757783_s_at) / RFU DDX43 (11728927_at) / Fold change /veh DDX43 (11728927_at) / RFU KRT8 (11758188_x_at) / Fold change /veh KRT8 (11758188_x_at) / RFU NKD1 (11759106_at) / Fold change /veh NKD1 (11759106_at) / RFU SRD5A1 (11742802_a_at) / Fold change /veh SRD5A1 (11742802_a_at) / RFU TPSAB1 /// TPSB2 (11721975_s_at) / Fold change /veh TPSAB1 /// TPSB2 (11721975_s_at) / RFU GSTM3 (11746129_a_at) / Fold change /veh GSTM3 (11746129_a_at) / RFU IL23R (11737362_x_at) / Fold change /veh IL23R (11737362_x_at) / RFU TMEM51 (11727254_a_at) / Fold change /veh TMEM51 (11727254_a_at) / RFU PIWIL2 (11732686_x_at) / Fold change /veh PIWIL2 (11732686_x_at) / RFU ORM1 (11744905_x_at) / Fold change /veh ORM1 (11744905_x_at) / RFU CCDC152 (11743942_at) / Fold change /veh CCDC152 (11743942_at) / RFU ECM1 (11717891_a_at) / Fold change /veh ECM1 (11717891_a_at) / RFU IL23R (11748794_a_at) / Fold change /veh IL23R (11748794_a_at) / RFU TNFAIP8L3 (11732012_x_at) / Fold change /veh TNFAIP8L3 (11732012_x_at) / RFU MBOAT4 (11741988_at) / Fold change /veh MBOAT4 (11741988_at) / RFU 11764193_at / Fold change /veh 11764193_at / RFU TMEM53 (11763286_at) / Fold change /veh TMEM53 (11763286_at) / RFU MAGEB2 (11727129_at) / Fold change /veh MAGEB2 (11727129_at) / RFU TMEM200A (11744735_a_at) / Fold change /veh TMEM200A (11744735_a_at) / RFU CCDC152 (11751479_a_at) / Fold change /veh CCDC152 (11751479_a_at) / RFU FAM211A (11726209_a_at) / Fold change /veh FAM211A (11726209_a_at) / RFU RGS16 (11746705_a_at) / Fold change /veh RGS16 (11746705_a_at) / RFU VCAN (11755009_s_at) / Fold change /veh VCAN (11755009_s_at) / RFU RHOB (11743442_s_at) / Fold change /veh RHOB (11743442_s_at) / RFU RGS16 (11720943_a_at) / Fold change /veh RGS16 (11720943_a_at) / RFU RGS16 (11720944_at) / Fold change /veh RGS16 (11720944_at) / RFU, VPS4B / Fold change vs veh, VPS4B / RFU, CREB1 / Fold change vs veh, CREB1 / RFU, DNAJC13 / Fold change vs veh, DNAJC13 / RFU, GNAQ / Fold change vs veh, GNAQ / RFU, CDK5R1 / Fold change vs veh, CDK5R1 / RFU, ZRANB3 / Fold change vs veh, ZRANB3 / RFU, CUL4A / Fold change vs veh, CUL4A / RFU, CCNY / Fold change vs veh, CCNY / RFU, UFL1 / Fold change vs veh, UFL1 / RFU, COG3 / Fold change vs veh, COG3 / RFU, DIAPH2 / Fold change vs veh, DIAPH2 / RFU, SKA2 / Fold change vs veh, SKA2 / RFU, AFF3 / Fold change vs veh, AFF3 / RFU, LMF1 / Fold change vs veh, LMF1 / RFU, IPO11 / Fold change vs veh, IPO11 / RFU, DFFB / Fold change vs veh, DFFB / RFU, FOXP1 / Fold change vs veh, FOXP1 / RFU, CARD8 / Fold change vs veh, CARD8 / RFU, STRN3 / Fold change vs veh, STRN3 / RFU, ADK / Fold change vs veh, ADK / RFU, RASSF2 / Fold change vs veh, RASSF2 / RFU, WIPF1 / Fold change vs veh, WIPF1 / RFU, LARP1B / Fold change vs veh, LARP1B / RFU, RASA1 / Fold change vs veh, RASA1 / RFU, RB1 / Fold change vs veh, RB1 / RFU, PPFIA1 / Fold change vs veh, PPFIA1 / RFU, MAT2A / Fold change vs veh, MAT2A / RFU, CCT5 / Fold change vs veh, CCT5 / RFU, WDR92 / Fold change vs veh, WDR92 / RFU, CUX1 / Fold change vs veh, CUX1 / RFU, TTC7A / Fold change vs veh, TTC7A / RFU, TMEM135 / Fold change vs veh, TMEM135 / RFU, DEPTOR / Fold change vs veh, DEPTOR / RFU, CPM / Fold change vs veh, CPM / RFU, DNAJB6 / Fold change vs veh, DNAJB6 / RFU, CACNA2D3 / Fold change vs veh, CACNA2D3 / RFU, DTX4 / Fold change vs veh, DTX4 / RFU, TFCP2 / Fold change vs veh, TFCP2 / RFU, GMCL1 /// GMCL1P1 / Fold change vs veh, GMCL1 /// GMCL1P1 / RFU, AEBP2 / Fold change vs veh, AEBP2 / RFU, SNHG1 /// SNORD22 /// SNORD25 /// SNORD26 /// SNORD27 /// SNORD28 /// SNORD29 /// SNORD31 / Fold change vs veh, SNHG1 /// SNORD22 /// SNORD25 /// SNORD26 /// SNORD27 /// SNORD28 /// SNORD29 /// SNORD31 / Fold change (Aza/veh), C12orf56 (ProbeSet 11735607_a_at) / Fold change (ACY-1035/veh), C12orf56 (ProbeSet 11735607_a_at) / Fold change (Aza/veh), FGFR1OP (ProbeSet 11751329_s_at) / Fold change (ACY-1035/veh), FGFR1OP (ProbeSet 11751329_s_at) / Fold change (Aza/veh), VPS36 (ProbeSet 11739960_a_at) / Fold change (ACY-1035/veh), VPS36 (ProbeSet 11739960_a_at) / RFU SYPL1 (11715823_x_at) / Fold change /veh SYPL1 (11715823_x_at) / RFU IGFBP7 (11715501_s_at) / Fold change /veh IGFBP7 (11715501_s_at) / RFU REEP3 (11722064_at) / Fold change /veh REEP3 (11722064_at) / RFU IGLL1 (11728026_x_at) / Fold change /veh IGLL1 (11728026_x_at): dose or concentration left out as unconfirmed
Details: ProbeSet 11721559_s_at; LIST B

Nc1ccc(-c2cccs2)cc1NC(=O)c1ccc2c(c1)cc(C1CC1)n2CCN1CCOCC1 [ACY-1035]
Fold change vs veh, ZNF638 /// ZNF638-IT1: 0.85
